Results reported in publication PMC8173716 (Nature nanotechnology, 2020).

How the values were obtained:
[1] = system: NE in mouse lung lysates; details: cited from earlier work
[2] = system: human NE; details: cited from earlier work
[3] = system: NE; test: vABN breath test in PA01-inoculated mice treated with sivelestat; format: in vivo, mouse; details: sivelestat before vABN delivery
[4] = system: NE; details: cited from earlier work
[5] = system: mouse NE; test: Inhibition of mouse NE cleavage of vABNs by sivelestat, in vitro; format: biochemical
[6] = system: NE; test: vABN breath test in WT and SERPINA1a-e knockout mice; format: in vivo, mouse (male C57BL/6 WT and Serpina1a-e knockout); details: 1 mg prophylactic A1AT, LPS
[7] = system: NE; test: vABN breath test in LPS-challenged mice given prophylactic A1AT; format: in vivo, mouse (female C57BL/6N)

Molecule: Ac-Nle(O-Bzl)-Met(O)2-Oic-Abu-ACC
- binding in mouse lung lysates [1]: bind specifically to NE in mouse lung lysates
- selectivity for human NE [2]: selectivity for human NE
- catalytic efficiency (kcat/Km) ([2]; fluorogenic ACC substrate): 4.79e+07 M⁻¹ s⁻¹

Molecule: CC(C)(C)C(=O)Oc1ccc(S(=O)(=O)Nc2ccccc2C(=O)NCC(=O)O)cc1 [sivelestat]
- attenuation of breath signal in infected mice [3]: ~ 75%
- specific inhibition of NE [4]: specifically inhibits NE
- inhibition of mouse NE cleavage of vABNs [5]: mouse NE can be inhibited using sivelestat to prevent cleavage of vABNs

Molecule: A1AT: Alpha-1 antitrypsin, a protein inhibitor of NE
- breath signal in A1AT-treated knockout mice vs untreated knockout mice ([6]; p < 0.05, n = 7–8): significantly lower than that in untreated knockout mice
- AUROC, A1AT-treated knockout vs WT with acute inflammation ([6]; p = 0.568): 0.60
- neutrophil recruitment / anti-inflammatory effect [4]: suppressed neutrophil recruitment, a well-documented anti-inflammatory effect of A1AT
- breath signal after LPS challenge ([7]; 1-mg A1AT 1–2 days before LPS challenge, vs untreated LPS-challenged controls): significantly reduce breath signal
- breath signal after LPS challenge ([7]; 1-mg A1AT 3 days before LPS challenge (D-3), vs untreated controls): absence of significant difference
- AUROC, untreated vs A1AT-treated ([7]; A1AT 1 day before LPS challenge (D-1)): 0.97
- AUROC, untreated vs A1AT-treated ([7]; A1AT 2 days before LPS challenge (D-2)): 0.91
- AUROC, untreated vs A1AT-treated ([7]; A1AT 3 days before LPS challenge (D-3)): 0.50
- correlation between breath signal and A1AT in the lungs (Pearson's r) ([7]; p = 0.0293): −0.6018
- protection by day 3 ([7]; single 1 mg AAT dose): No protection is observed by day 3
